Test [1] deals with T1, Alpha-2B adrenergic receptor (Didelphis virginiana, UniProt O77715).
T1 sequence (O77715 whole entry): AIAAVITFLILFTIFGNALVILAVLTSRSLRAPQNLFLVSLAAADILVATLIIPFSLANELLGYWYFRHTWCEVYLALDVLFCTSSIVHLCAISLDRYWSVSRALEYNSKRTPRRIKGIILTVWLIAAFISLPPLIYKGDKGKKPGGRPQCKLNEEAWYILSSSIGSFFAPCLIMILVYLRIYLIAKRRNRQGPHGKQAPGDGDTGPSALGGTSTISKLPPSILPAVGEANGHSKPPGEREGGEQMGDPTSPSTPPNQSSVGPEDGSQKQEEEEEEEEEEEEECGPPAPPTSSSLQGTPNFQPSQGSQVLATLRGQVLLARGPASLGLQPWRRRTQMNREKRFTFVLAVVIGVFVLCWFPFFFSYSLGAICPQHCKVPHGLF

The target in test [2] is T2, Alpha-2A adrenergic receptor (Homo sapiens, UniProt P08913).
T2 sequence (P08913 whole entry): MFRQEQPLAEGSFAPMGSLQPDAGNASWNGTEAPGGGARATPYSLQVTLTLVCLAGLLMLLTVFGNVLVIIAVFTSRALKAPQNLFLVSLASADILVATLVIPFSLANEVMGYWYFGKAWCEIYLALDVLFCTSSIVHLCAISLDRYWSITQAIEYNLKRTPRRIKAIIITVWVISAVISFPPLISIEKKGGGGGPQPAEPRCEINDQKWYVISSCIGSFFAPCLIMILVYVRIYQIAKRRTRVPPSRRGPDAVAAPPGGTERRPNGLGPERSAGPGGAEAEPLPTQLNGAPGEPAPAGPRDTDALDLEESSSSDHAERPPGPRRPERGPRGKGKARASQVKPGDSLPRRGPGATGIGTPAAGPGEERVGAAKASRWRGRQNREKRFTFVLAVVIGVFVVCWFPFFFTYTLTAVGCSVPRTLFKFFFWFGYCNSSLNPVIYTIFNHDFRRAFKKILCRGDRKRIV

The target of test [3] is T3, Alpha-2A adrenergic receptor (Bos taurus, UniProt Q28838).
T3 sequence (Q28838 whole entry): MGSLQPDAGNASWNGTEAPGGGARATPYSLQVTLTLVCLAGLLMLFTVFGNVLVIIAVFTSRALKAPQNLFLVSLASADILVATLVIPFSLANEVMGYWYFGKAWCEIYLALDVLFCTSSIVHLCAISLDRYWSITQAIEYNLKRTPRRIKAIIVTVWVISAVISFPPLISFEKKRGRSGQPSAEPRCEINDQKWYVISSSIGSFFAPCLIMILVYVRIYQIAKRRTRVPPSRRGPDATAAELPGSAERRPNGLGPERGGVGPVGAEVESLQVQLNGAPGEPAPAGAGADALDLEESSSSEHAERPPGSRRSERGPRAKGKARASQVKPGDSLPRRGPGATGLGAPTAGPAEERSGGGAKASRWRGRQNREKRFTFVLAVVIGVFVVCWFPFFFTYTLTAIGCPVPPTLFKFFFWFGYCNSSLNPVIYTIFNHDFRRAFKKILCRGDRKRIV

Test [4] addresses T4, Alpha-2C adrenergic receptor (Rattus norvegicus, UniProt P22086).
T4 sequence (P22086 whole entry): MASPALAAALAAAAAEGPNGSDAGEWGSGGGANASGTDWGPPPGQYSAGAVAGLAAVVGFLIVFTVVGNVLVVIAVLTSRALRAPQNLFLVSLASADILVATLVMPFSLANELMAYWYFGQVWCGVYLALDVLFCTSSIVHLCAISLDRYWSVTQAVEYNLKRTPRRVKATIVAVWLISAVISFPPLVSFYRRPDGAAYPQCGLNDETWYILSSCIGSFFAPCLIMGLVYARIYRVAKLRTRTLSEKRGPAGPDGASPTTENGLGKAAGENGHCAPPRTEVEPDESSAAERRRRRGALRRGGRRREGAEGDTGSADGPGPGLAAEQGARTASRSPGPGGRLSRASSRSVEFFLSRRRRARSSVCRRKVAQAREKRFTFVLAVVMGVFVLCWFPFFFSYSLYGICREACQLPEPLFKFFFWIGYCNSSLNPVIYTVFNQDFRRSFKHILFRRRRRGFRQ

pKi: −log10 of the molar value. “And” between values parts separate entries of the source, which are not always exact repeats. Equal values may be shown once.

Usually pKi stands for −log10 of the Ki, conventionally taken in molar units. A lower pKi goes with a high Ki. `O=C1NCN(c2ccccc2)C12CCN(CC1COc3ccccc3O1)CC2` (stereo unspecified) [8-(2,3-Dihydro-benzo[1,4]dioxin-2-ylmethyl)-1-phenyl-1,3,8-triaza-spiro[4.5]decan-4-one]: the pKi in test [1] is 9.59 and 9.21; in test [2], 8.02; in test [3], 8.03 and 7.92; in test [4] it was 9.55 and 9.15.
Regarding `CN1C[C@H](Cn2ccnc2-c2ccccc2)C[C@@H]2c3cccc4[nH]c(Br)c(c34)C[C@H]21` [BAM-1303], the pKi in test [1] was 9.42 and 9.33; in test [2] it was 9.03; in test [3] it was 7.27 and 6.70; in test [4], 8.16 and 8.06.
With `COc1ccccc1N1CCN(CCC2C(=O)c3ccccc3C(C)(C)C2=O)CC1` (stereo unspecified) [NSC_122211], the pKi in test [1] is 7.89 and 7.33; in test [2] it was 6.66; in test [3] it was 6.83 and 6.49; in test [4], 8.80 and 8.64.
As to `COc1cccc(OC)c1OCCNCC1Oc2ccccc2OC1c1ccccc1` (stereo unspecified) [NSC_185453], the pKi was 9.20 and 9.00 in test [1]; 8.66 in test [2]; 8.12 and 7.87 in test [3]; 8.11 and 7.73 in test [4].
Take `NCC(O)c1ccc(O)c(O)c1` (stereo not drawn) [Noradrenaline,(+)]: the negative-log Ki (pKi) was 7.55 in test [1]; 6.03 and 5.98 in test [3].
For the compound `CC(C)=CCOc1ccc(Cl)c2c1CCN(C)CC2` [SK&F-104078], the pKi in test [1] was 7.37 and 7.26; in test [2] it was 7.40; in test [3], 7.09 and 6.84; in test [4], 7.31 and 7.16.
For the compound `Cc1cc(C(C)(C)C)c(O)c(C)c1CC1=NCCN1` [SMR000059324], the pKi in test [1] is 7.82; in test [3], 7.42 and 7.48.
For `COc1cc2nc(N3CCN(C(=O)c4ccco4)CC3)nc(N)c2cc1OC` [[3H]-Minipress], the pKi was 6.88 and 6.93 in test [1]; 6.16 and 5.88 in test [3].

The record behind these values is BindingDB's records for PubMed 7908054 (University of Nebraska, 1994).
